Laboratory results from patent US5780489A, “Method for treating amyotrophic lateral sclerosis” (priority 1996, dated 1998).
Entries after “also recorded” stand apart in the source; their conditions may differ. Where two headings read alike, the source gives them in different places. Each block holds one compound with its values, some of them ahead of it.

Tests used:
human cells = settings: cited from earlier work
[1] = by an esterase; cited from earlier work
[2] = esterase activity absent in human plasma; cited from earlier work
[3] = test system: γ-glutamyl transpeptidase; settings: proposed by Shikama et al.; cited from earlier work
cellular ischemia = settings: H Shikama et al., 1995; cited from earlier work
[4] = test system: rat cerebrospinal fluid (CSF); settings: Shikama et al. 1995, cited from earlier work; for rate of uptake into rat cerebrospinal fluid: GSH versus GSH isopropyl ester
cells [5] = settings: Puri and Meister, 1983; cited from earlier work
cells [6] = settings: cited from earlier work
[7] = Meister et al., 1986; cited from earlier work
[8] = Meister et al., 1986; cited from earlier work; remark: listed apart in the source
ALS patients [9] = settings: cited from earlier work; for survival in ALS (in words): human, in vivo
[10] = B Olsson et al., 1988; cited from earlier work
[11] = test system: chronic organotypic spinal cord cultures; settings: in vitro, after SOD1 anti-sense oligonucleotides; cited from earlier work
adverse experiences = format: in vivo, human; settings: only minor
Excerpt: The risk of any of these side effects occurring is small; however, should they occur, the dose of medication is reduced or discontinued entirely. However, OTZ is an experimental drug and unexpected side effects may occur.

patients with ALS = test: progression of ALS, phase II trial of OTZ and Riluzole versus Riluzole alone; format: in vivo, human; settings: 9 months, 3000 mg p.o. t.i.d.
Description: 5.3. OTZ in ALS Patients: Phase II Trial
A phase II, bi-center, double-blind randomized controlled comparison trial of the efficacy of OTZ and the anti-glutamate agent, Riluzole, versus Riluzole alone in slowing of disease progression in patients with ALS (50 at each center) is performed. Patients receive treatment for 9 months. Riluzole is approved for marketing by the FDA.
The OTZ and placebo capsules are identical in appearance. Riluzole is administered as tablets obtained from the manufacturer. Riluzole is administered at 50 mg bid to all subjects. The OTZ dose is the same as used in the Phase I study, 3000 mg p.o. t.i.d. However, the final determination of OTZ dose may be modified. Half the subjects receive active OTZ capsules and the other half receive identical appearing placebo capsules.
The primary outcome measure is change in motor and pulmonary function after 9 months of experimental therapy as tested with the Tufts Quantitative Neuromuscular Exam ([…]) and FVC. The secondary outcome measure is based upon ALS Functional Rating Scores.
Analysis is done on an intention to treat basis. The primary analysis tests the difference in average slopes of arm megascores between the OTZ and Riluzole combination and Riluzole alone groups using a two-way ANOVA with treatment and center in the model, with a two-sided alpha=0.05. […]

[12] = test system: GSH levels in some cell types; settings: Williamson et al. 1981; cited from earlier work
5-oxoprolinase = settings: cited from earlier work
[13] = OTZ pharmacokinetics (plasma elimination and oral absorption); format: in vivo, human
Description: The synthesis of glutathione, an endogenous antioxidant, is often limited by the supply of intracellular cysteine, one of the component amino acids of glutathione. […] Some of these patients continued taking OTZ capsules (up to 9 grams/day) for over two years.
Subjects with ALS were enrolled in a tolerability, pharmacokinetics and pharmacodynamics study of OTZ in ALS patients. In this study, glutathione and cysteine levels in whole blood and CSF and OTZ pharmacokinetics were determined in ten to twenty subjects with ALS. Blood was obtained for baseline glutathione and cysteine levels. A spinal catheter was inserted and baseline CSF samples collected for determination of glutathione and cysteine levels. OTZ (90 ml 5% OTZ injection=4500 mg OTZ) was administered by intravenous infusion through a peripheral vein over 60±10 minutes. At various time points after the start of the OTZ infusion, blood and CSF samples were drawn for determination of OTZ and glutathione levels. The following day, subjects started taking OTZ capsules (3000 mg t.i.d.) for 28 days. After 7 and 14 days of treatment with OTZ capsules, blood was drawn for analyses of safety parameters, glutathione, cysteine and OTZ levels. On the last day of the treatment period, blood and CSF samples were drawn for analysis of OTZ, glutathione, and cysteine levels. The study endpoints were tolerability, and pharmacokinetic and pharmacodynamic data. Safety was determined by clinical history and examination, quantitative neuromuscular examination and a panel of safety laboratory tests. Nine subjects completed the study and samples are analyzed. In addition, CSF was drawn from patients without severe neurological disorders and the GSH levels are analyzed and compared to the levels for ALS patients.

[14] = test system: intracellular glutathione levels; settings: cited from earlier work
GSH levels in rat brains = settings: cited from earlier work
[15] = test system: transgenic mice which overexpress the mutant SOD1 protein; settings: small, but statistically significant; cited from earlier work
[16] = test system: glutamate release at pre-synaptic terminals; settings: cited from earlier work
ALS patients [17] = settings: two controlled studies; cited from earlier work
[18] = in vivo; cited from earlier work

Structure (SMILES): CCOC(=O)CNC(=O)[C@H](CS)NC(=O)CC[C@H](N)C(=O)OCC [GSH diethylester]
entry into human cells (human cells): even more efficiently transported into human cells than the monoester
intracellular GSH levels in human cells (human cells): increase of intracellular GSH levels
conversion to monoethyl (glycyl) ester in rodent blood plasma [1]: readily converted to monoethyl (glycyl) ester in rodent blood plasma
stability in human blood [2]: stable in human blood

Structure (SMILES): CC(C)OC(=O)CNC(=O)[C@H](CS)NC(=O)CC[C@H](N)C(=O)O [GSH isopropyl ester, glutathione isopropyl ester]
affinity for γ-glutamyl transpeptidase [3]: reduced affinity
protection against cellular ischemia (cellular ischemia): provide protection against cellular ischemia
rate of uptake into rat cerebrospinal fluid [4]: the same
total GSH (sum of GSH and GSH ester) in rat CSF [4]: only the ester increased the total GSH
stability in CSF ([4]; versus GSH): more stable that GSH in the CSF

Structure (SMILES): CCOC(=O)CNC(=O)[C@H](CS)NC(=O)CC[C@H](N)C(=O)O [GSH monoethylester]
entry into human cells (human cells): able to enter human cells
intracellular GSH levels in human cells (human cells): increase in GSH levels

Structure (SMILES): N[C@@H](CCC(=O)N[C@@H](CS)C(=O)NCC(=O)O)C(=O)O [GSH, L-γ-glutamyl-L-cysteinylglycine]
protection of cells against toxic compounds (cells [5]): can protect some cells against toxic compounds
rate of uptake into rat cerebrospinal fluid [4]: the same
effect of administration on intracellular GSH levels (cells [6]; Meister, U.S. Pat. No. 4,879,370): has not led to increased intracellular GSH levels
transport into cells (cells [6]): not transported efficiently into cells; also recorded: not efficiently transported into most animal cells

Structure (SMILES): N[C@@H](CS)C(=O)O [L-cysteine]
oxidation at neutral pH [7]: oxidized spontaneously at neutral pH
toxicity of high extracellular levels [8]: high extracellular levels of cysteine can be toxic
transport into cells (cells [6]): not transported efficiently into cells
transport into cells (cells [6]; listed as cysteine): not efficiently transported into most animal cells

Structure (SMILES): CC(=O)N[C@@H](CS)C(=O)O [N-acetylcysteine (NAC), N-acetylcysteine]
survival in ALS (in words) (ALS patients [9]): trend towards increasing survival in ALS patients
bioavailability in human studies [10]: low bioavailability
reversal of death process in spinal cord cultures [11]: reversed

elimination from plasma ([13]; after oral or intravenous administration): rapidly eliminated from plasma
half-life ([13]; plasma, after oral or intravenous administration, read-out: T1/2 (elimination from plasma)): 1 to 2 h
Structure (SMILES): O=C1N[C@H](C(=O)O)CS1 [OTZ, L-2-oxothiazolidine-4-carboxylic acid]
adverse experiences associated with OTZ (adverse experiences): stomach upset, dizziness, insomnia, nausea, restlessness and headache
rate of progression of ALS (patients with ALS): slows the rate of progression of ALS
increase of GSH levels in some cell types [12]: effective in increasing GSH levels in some cell types
conversion to cysteine (enzyme required) (5-oxoprolinase): requires the enzyme 5-oxoprolinase
metabolism by 5-oxo-L-prolinase (5-oxoprolinase; in vitro, in the presence of adenosine triphosphate): subjected to the action of 5-oxo-L-prolinase in the presence of adenosine triphosphate to produce S-carboxyl cysteine
absorption after oral administration ([13]; oral): readily absorbed after oral administration
intracellular glutathione levels in animal models [14]: increases intracellular glutathione levels in animal models
GSH levels in rat brains (GSH levels in rat brains; Anderson and Meister 1989): no effect or only slightly increased GSH levels
level of GSH in rat brains (GSH levels in rat brains; subcutaneous injections, Mesina et al. 1989): statistically significant increase in the level of GSH in rat brains

Structure (SMILES): Nc1nc2ccc(OC(F)(F)F)cc2s1 [Riluzole]
prolongation of survival in transgenic SOD1 mutant mice [15]: 11%
release of glutamates at pre-synaptic terminals [16]: inhibits release of glutamates at pre-synaptic terminals
prolongation of survival of ALS patients (ALS patients [9]; G Bensimon et al., 1994): 12%
survival in ALS (in words) (ALS patients [9]): extend survival in ALS; also recorded: improve survival in ALS; also recorded: small affect on survival
prolongation of lifespan in patients with ALS (ALS patients [9]; two studies, statistically significant, but small, G Bensimon et al., 1994): 18%
improvement in strength (ALS patients [17]): without a concomitant improvement in strength
known adverse experiences associated with Riluzole therapy [18]: asthenia, fatigue and asymptomatic elevation of liver function tests
